# In ChEMBL document CHEMBL3600331, “Small molecule inhibits activity of scavenger receptor A: Lead identification and preliminary studies” (Bioorg Med Chem Lett, 2015):
# Activity calls are given as the source filed them. The rule behind the calls is not given here.
# How the values were obtained:
# [1] = target: T1, Macrophage scavenger receptor types I and II (Mus musculus) (UniProt P30204); assay: Inhibition of scavenger receptor A in wild type C57BL/6 mouse BMDC assessed as gp100 (25 to 33) peptide-induced T cell activation by measuring IL2 production at 20 uM after 56 hrs by ELISA
# T1 sequence (whole entry): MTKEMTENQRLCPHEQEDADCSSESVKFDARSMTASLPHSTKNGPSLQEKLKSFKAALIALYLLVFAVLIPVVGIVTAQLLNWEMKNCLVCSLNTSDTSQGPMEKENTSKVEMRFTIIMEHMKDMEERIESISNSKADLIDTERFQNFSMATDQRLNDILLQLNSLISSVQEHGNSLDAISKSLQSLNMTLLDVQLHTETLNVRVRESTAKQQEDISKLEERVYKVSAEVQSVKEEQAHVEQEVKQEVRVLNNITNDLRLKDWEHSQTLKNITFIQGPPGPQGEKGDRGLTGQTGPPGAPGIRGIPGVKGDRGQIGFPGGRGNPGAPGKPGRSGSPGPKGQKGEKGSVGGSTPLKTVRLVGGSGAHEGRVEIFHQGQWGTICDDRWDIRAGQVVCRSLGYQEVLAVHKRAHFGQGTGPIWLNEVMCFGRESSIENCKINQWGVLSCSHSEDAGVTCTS
# [2] = target: T1, Macrophage scavenger receptor types I and II (Mus musculus); assay: Inhibition of scavenger receptor A in wild type C57BL/6 mouse BMDC assessed as OVA257-264 peptide-induced T cell activation by measuring IL2 production at 10 uM after 56 hrs by ELISA
# [3] = target: T1, Macrophage scavenger receptor types I and II (Mus musculus); assay: Inhibition of scavenger receptor A in wild type C57BL/6 mouse BMDC assessed as OVA257-264 peptide-induced T cell activation by measuring IL2 production at 30 uM after 56 hrs by ELISA
# T-cell = assay: Inhibition of OVA257-264 peptide-induced T cell activation in SRA-deficient C57BL/6 mouse BMDC assessed as IL2 production at 10 to 30 uM after 56 hrs by ELISA; assay type: functional, cell-based
# B3Z = assay: Inhibition of scavenger receptor A (unknown origin) in mouse B3Z cells assessed as anti-CD3/CD28 antibody-induced T cell activation by measuring transcription of il2 gene after 5 hrs by beta-galactosidase assay; assay type: cell-based
# [4] = target: T1, Macrophage scavenger receptor types I and II (Mus musculus); assay: Inhibition of scavenger receptor A in mouse DC1.2 cells assessed as decrease in poly(I:C)-induced activation of IRF3 pretreated for 2 hrs before poly(I:C) stimulation measured after 3 hrs by immunoblotting; assay type: cell-based
# [5] = target: T1, Macrophage scavenger receptor types I and II (Mus musculus); assay: Inhibition of scavenger receptor A in mouse DC1.2 cells assessed as decrease in poly(I:C)-induced activation of STAT1 pretreated for 2 hrs before poly(I:C) stimulation measured after 3 hrs by immunoblotting; assay type: cell-based
inhibition [1],inhibition [2],inhibition [3],inhibition [4],inhibition [5],SMILES,inhibition (T-cell),inhibition (B3Z)
Active,–,–,–,–,O=C(O)c1cc(O)c2c(c1)[C@@H]([C@H]1c3cc(C(=O)O)cc(O)c3C(=O)c3c(O[C@@H]4O[C@H](CO)[C@@H](O)[C@H](O)[C@H]4O)cccc31)c1cccc(O[C@@H]3O[C@H](CO)[C@@H](O)[C@H](O)[C@H]3O)c1C2=O,–,–
Active,Active,Active,Dose-dependent effect,Dose-dependent effect,O=C(O)c1cc(O)c2c(c1)C(=O)c1cccc(O)c1C2=O,inactive,Dose-dependent effect
